Several values for one entry are separate records, joined by “and”; a condition that tells them apart may be missing. Equal entries are not always repeated. Numbers after ± are expanded uncertainties.
Experiments:
[1] = 101.33 kPa, Liquid, Capillary tube (Ostwald / Ubbelohde) method
[2] = xn = mol fraction of the nth substance listed; conditions: 101 kPa, Liquid; for viscosity: Capillary tube (Ostwald / Ubbelohde) method; for mass density: Vibrating tube method

In the case of `CCCCCC` [hexane], the viscosity ([1]; 298.2 K) is reported as 0.2937 ± 0.0065 mPa·s, the viscosity ([1]; 303.16 K) is reported as 0.2798 ± 0.0062 mPa·s and the viscosity ([1]; 308.13 K) is reported as 0.2669 ± 0.0059 mPa·s.
With `CCCCCC` [hexane] + FC(F)(F)C(F)(F)C(F)(F)C(F)(F)C(F)(F)C(F)(F)F the viscosity ([2]; 298 K, x2 = 0) was 0.294 ± 0.006 mPa·s, the mass density ([2]; 298 K, x2 = 0) was 655 ± 1 kg/m3 and the viscosity ([2]; 303 K, x2 = 0) was 0.28 ± 0.006 mPa·s. The viscosity ([2]; 308 K, x2 = 0) was 0.267 ± 0.006 mPa·s.
For `FC(F)(F)C(F)(F)C(F)(F)C(F)(F)C(F)(F)C(F)(F)F` [perfluorohexane] + CCCCCC, the viscosity ([2]; 298 K, x1 = 0.243) was 0.341 ± 0.008 mPa·s, the viscosity ([2]; 298 K, x1 = 0.5) was 0.408 ± 0.009 mPa·s and 0.407 ± 0.009 mPa·s and the viscosity ([2]; 298 K, x1 = 0.705) was 0.458 ± 0.01 mPa·s. For the same molecule, the viscosity ([2]; 298 K, x1 = 0.727) was 0.468 ± 0.01 mPa·s, the viscosity ([2]; 298 K, x1 = 0.902) was 0.556 ± 0.012 mPa·s and the viscosity ([2]; 298 K, x1 = 1) was 0.635 ± 0.014 mPa·s. For the same molecule, the mass density ([2]; 298 K, x1 = 0.25) was 956 ± 1 kg/m3, the mass density ([2]; 298 K, x1 = 0.5) was 1207 ± 1 kg/m3 and the mass density ([2]; 298 K, x1 = 0.75) was 1457 ± 1 kg/m3. For the same molecule, the mass density ([2]; 298 K, x1 = 1) was 1672 ± 1 kg/m3, the viscosity ([2]; 303 K, x1 = 0.243) was 0.319 ± 0.007 mPa·s and the viscosity ([2]; 303 K, x1 = 0.5) was 0.375 ± 0.008 mPa·s. The viscosity ([2]; 303 K, x1 = 0.705) was 0.428 ± 0.009 mPa·s, the viscosity ([2]; 303 K, x1 = 0.727) was 0.438 ± 0.01 mPa·s and the viscosity ([2]; 303 K, x1 = 0.902) was 0.52 ± 0.011 mPa·s. The viscosity ([2]; 303 K, x1 = 1) was 0.589 ± 0.013 mPa·s, the viscosity ([2]; 308 K, x1 = 0.243) was 0.299 ± 0.007 mPa·s and the viscosity ([2]; 308 K, x1 = 0.5) was 0.35 ± 0.008 mPa·s and 0.352 ± 0.008 mPa·s. The viscosity ([2]; 308 K, x1 = 0.705) was 0.401 ± 0.009 mPa·s, the viscosity ([2]; 308 K, x1 = 0.727) was 0.41 ± 0.009 mPa·s and the viscosity ([2]; 308 K, x1 = 0.902) was 0.483 ± 0.01 mPa·s. For the same molecule, the viscosity ([2]; 308 K, x1 = 1) was 0.548 ± 0.012 mPa·s.
